Test results from patent US8569336B2, “Compounds for the treatment of inflammatory disorders” (priority 2008, dated 2013).

molecular target: T1, purified catalytic domain of recombinant human TACE (rhTACEc) (Homo sapiens, UniProt P78536, N452Q/S266A); assay: TACE kinetic assay: cleavage of internally quenched peptide substrate TNF-FRET 2 (Ki); type: biochemical; settings: TNF-FRET 2 substrate, read-out: Ki
T1 construct: 6xHis (C); made in house; host or cells: baculovirus/Hi5 insect cells
T1 sequence (P78536 215-477 S266A/N452Q): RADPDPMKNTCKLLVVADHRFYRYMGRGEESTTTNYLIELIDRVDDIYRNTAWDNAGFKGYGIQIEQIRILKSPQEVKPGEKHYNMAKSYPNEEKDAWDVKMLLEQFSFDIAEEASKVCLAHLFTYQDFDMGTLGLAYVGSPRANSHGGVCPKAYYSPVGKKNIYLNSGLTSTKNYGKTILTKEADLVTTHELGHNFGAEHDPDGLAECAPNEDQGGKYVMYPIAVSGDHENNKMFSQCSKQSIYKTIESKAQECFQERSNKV

Structure (SMILES) | Ki
COc1ccc2c(c1)C(=O)N(C[C@@]1(c3cc4nc(N5CCC[C@H]5CO)ccc4o3)NC(=O)NC1=O)C2 [Compound 1513] | 0.7 nM
CCN1CCN(c2nc3cc([C@]4(CN5Cc6ccc(OC)c(F)c6C5=O)NC(=O)NC4=O)oc3cc2F)CC1 [Compound 1709] | 0.7 nM
COc1ccc2c(c1F)C(=O)N(C[C@@]1(c3cc4cc(F)c5c(c4o3)CNC5=O)NC(=O)NC1=O)C2 [Compound 2501] | 0.86 nM
COc1ccc2c(c1)C(=O)N(C[C@@]1(c3cc4nc(N5CCC5=O)ccc4o3)NC(=O)NC1=O)C2 [Compound 2173] | 0.955 nM
COc1ccc2c(c1)C(=O)N(C[C@@]1(c3cc4cc(-c5ccncc5)ncc4o3)NC(=O)NC1=O)C2 [Compound 2238] | 0.889 nM
COc1ccc2c(c1F)C(=O)N(C[C@@]1(c3cc4cc([C@@]5(C)NC(=O)NC5=O)c(F)cc4o3)NC(=O)NC1=O)C2 (single isomer, unassigned) [Compound 1326] | 0.63 nM
COc1ccc2c(c1)C(=O)N(C[C@@]1(c3cc4c(C5=NCCN5)nccc4o3)NC(=O)NC1=O)C2 [Compound 2274] | 2 nM
COc1ccc2c(c1F)C(=O)N(C[C@@]1(c3cc4nc(Nc5cncc(F)c5)ccc4o3)NC(=O)NC1=O)C2 [Compound 1733] | 0.71 nM
COc1ccc2c(c1F)C(=O)N(C[C@@]1(c3cc4c5c(ccc4o3)CNC5=O)NC(=O)NC1=O)C2 [Compound 2505] | 0.6 nM
COc1ccc2c(c1)C(=O)N(C[C@@]1(c3cc4cnc(-c5cccc(C#N)c5)cc4o3)NC(=O)NC1=O)C2 [Compound 2489] | 0.799 nM
COc1ccc2c(c1)C(=O)N(C[C@@]1(c3cc4cc(-n5cncn5)ccc4o3)NC(=O)NC1=O)C2 [Compound 2196] | 0.645 nM

The next compounds have a lower Ki than those just listed; values first:

Ki | Structure (SMILES)
0.437 nM | COc1ccc2c(c1)C(=O)N(C[C@@]1(c3cc4c(OC)nccc4o3)NC(=O)NC1=O)C2 [Compound 2307]
0.34 nM | COc1ccc2c(c1F)C(=O)N(C[C@@]1(c3cc4c(C)nccc4o3)NC(=O)NC1=O)C2 [Compound 2204]
0.3 nM | COc1ccc2c(c1F)C(=O)N(C[C@@]1(c3cc4nc(N5CCC5=O)ccc4o3)NC(=O)NC1=O)C2 [Compound 1522]
0.243 nM | COc1ccc2c(c1)C(=O)N(C[C@@]1(c3cc4cc(-c5csc(N)n5)ccc4o3)NC(=O)NC1=O)C2 [Compound 2220]
0.197 nM | COc1ccc2c(c1)C(=O)N(C[C@@]1(c3cc4nc(-c5cn[nH]c5)ccc4o3)NC(=O)NC1=O)C2 [Compound 2100]
0.276 nM | COc1ccc2c(c1)C(=O)N(C[C@@]1(c3cc4cc(F)ncc4o3)NC(=O)NC1=O)C2 [Compound 2304]
0.56 nM | COc1ccc2c(c1)C(=O)N(C[C@@]1(c3cc4cc(-c5cn[nH]c5)c(F)cc4o3)NC(=O)NC1=O)C2 [Compound 1186]
0.5 nM | COc1ccc2c(c1F)C(=O)N(C[C@@]1(c3cc4nc(N5CCN(C(C)C)CC5)ccc4o3)NC(=O)NC1=O)C2 [Compound 1706]
0.5 nM | CCN1CCN(c2ccc3oc([C@]4(CN5Cc6ccc(OC)c(F)c6C5=O)NC(=O)NC4=O)cc3n2)CC1=O [Compound 1707]
0.395 nM | COc1ccc2c(c1)C(=O)N(C[C@@]1(c3cc4nc(Nc5cnccn5)ccc4o3)NC(=O)NC1=O)C2 [Compound 2129]
0.195 nM | COc1ccc2c(c1F)C(=O)N(C[C@@]1(c3cc4cc5c(cc4o3)C(=O)NCC5)NC(=O)NC1=O)C2 [Compound 2491]
0.54 nM | COc1ccc2c(c1)C(=O)N(C[C@@]1(c3cc4c(-c5ccncc5)nccc4o3)NC(=O)NC1=O)C2 [Compound 2236]
0.55 nM | COc1ccc2c(c1)C(=O)N(C[C@@]1(c3cc4nc(C(N)=O)ccc4o3)NC(=O)NC1=O)C2 [Compound 1924]

system: TNF-α production from human whole blood; assay: Inhibition of TNF-α production from human whole blood (hWBA), LPS stimulated, ELISA; type: cell-based; settings: Homo sapiens, 3.5 h, human whole blood diluted 1:1, LPS stimulated, 3.5 h, TNF-α by ELISA; read-out: hWBA (IC50)

Structure (SMILES) | IC50
COc1ccc2c(c1)C(=O)N(C[C@@]1(c3cc4nc(N5CCC5=O)ccc4o3)NC(=O)NC1=O)C2 [Compound 2173] | 243 nM
COc1ccc2c(c1)C(=O)N(C[C@@]1(c3cc4cc(-c5ccncc5)ncc4o3)NC(=O)NC1=O)C2 [Compound 2238] | 628 nM
COc1ccc2c(c1)C(=O)N(C[C@@]1(c3cc4c(C5=NCCN5)nccc4o3)NC(=O)NC1=O)C2 [Compound 2274] | 2240 nM
COc1ccc2c(c1)C(=O)N(C[C@@]1(c3cc4cc(-n5cncn5)ccc4o3)NC(=O)NC1=O)C2 [Compound 2196] | 1540 nM

Now from value to compound:

IC50 | Structure (SMILES)
115 nM | COc1ccc2c(c1F)C(=O)N(C[C@@]1(c3cc4c(C)nccc4o3)NC(=O)NC1=O)C2 [Compound 2204]
722 nM | COc1ccc2c(c1)C(=O)N(C[C@@]1(c3cc4cc(-c5csc(N)n5)ccc4o3)NC(=O)NC1=O)C2 [Compound 2220]
99.4 nM | COc1ccc2c(c1)C(=O)N(C[C@@]1(c3cc4nc(-c5cn[nH]c5)ccc4o3)NC(=O)NC1=O)C2 [Compound 2100]
550 nM | COc1ccc2c(c1)C(=O)N(C[C@@]1(c3cc4cc(-c5cn[nH]c5)c(F)cc4o3)NC(=O)NC1=O)C2 [Compound 1186]
750 nM | COc1ccc2c(c1)C(=O)N(C[C@@]1(c3cc4nc(Nc5cnccn5)ccc4o3)NC(=O)NC1=O)C2 [Compound 2129]
949 nM | COc1ccc2c(c1)C(=O)N(C[C@@]1(c3cc4c(-c5ccncc5)nccc4o3)NC(=O)NC1=O)C2 [Compound 2236]

same assay, conditions: Homo sapiens, LPS-stimulated human whole blood, TNF-α by ELISA; read-out: hWBA (IC50)

Structure (SMILES) | IC50
COc1ccc2c(c1)C(=O)N(C[C@@]1(c3cc4nc(N5CCC[C@H]5CO)ccc4o3)NC(=O)NC1=O)C2 [Compound 1513] | 526 nM
CCN1CCN(c2nc3cc([C@]4(CN5Cc6ccc(OC)c(F)c6C5=O)NC(=O)NC4=O)oc3cc2F)CC1 [Compound 1709] | 131 nM
COc1ccc2c(c1F)C(=O)N(C[C@@]1(c3cc4cc([C@@]5(C)NC(=O)NC5=O)c(F)cc4o3)NC(=O)NC1=O)C2 (single isomer, unassigned) [Compound 1326] | 156 nM
COc1ccc2c(c1F)C(=O)N(C[C@@]1(c3cc4nc(Nc5cncc(F)c5)ccc4o3)NC(=O)NC1=O)C2 [Compound 1733] | 454 nM

Continued, values first:

IC50 | Structure (SMILES)
211 nM | COc1ccc2c(c1F)C(=O)N(C[C@@]1(c3cc4nc(N5CCC5=O)ccc4o3)NC(=O)NC1=O)C2 [Compound 1522]
224 nM | COc1ccc2c(c1F)C(=O)N(C[C@@]1(c3cc4nc(N5CCN(C(C)C)CC5)ccc4o3)NC(=O)NC1=O)C2 [Compound 1706]
235 nM | CCN1CCN(c2ccc3oc([C@]4(CN5Cc6ccc(OC)c(F)c6C5=O)NC(=O)NC4=O)cc3n2)CC1=O [Compound 1707]
200 nM | COc1ccc2c(c1)C(=O)N(C[C@@]1(c3cc4nc(C(N)=O)ccc4o3)NC(=O)NC1=O)C2 [Compound 1924]

same assay, conditions: Homo sapiens, human whole blood diluted 1:1, LPS stimulated, TNF-α by ELISA; read-out: hWBA (IC50)

Structure (SMILES) | IC50
COc1ccc2c(c1F)C(=O)N(C[C@@]1(c3cc4cc(F)c5c(c4o3)CNC5=O)NC(=O)NC1=O)C2 [Compound 2501] | 148 nM
COc1ccc2c(c1F)C(=O)N(C[C@@]1(c3cc4c5c(ccc4o3)CNC5=O)NC(=O)NC1=O)C2 [Compound 2505] | 151 nM
COc1ccc2c(c1)C(=O)N(C[C@@]1(c3cc4cnc(-c5cccc(C#N)c5)cc4o3)NC(=O)NC1=O)C2 [Compound 2489] | 8420 nM

The next lines start with the values.

IC50 | Structure (SMILES)
604 nM | COc1ccc2c(c1)C(=O)N(C[C@@]1(c3cc4c(OC)nccc4o3)NC(=O)NC1=O)C2 [Compound 2307]
419 nM | COc1ccc2c(c1)C(=O)N(C[C@@]1(c3cc4cc(F)ncc4o3)NC(=O)NC1=O)C2 [Compound 2304]
109 nM | COc1ccc2c(c1F)C(=O)N(C[C@@]1(c3cc4cc5c(cc4o3)C(=O)NCC5)NC(=O)NC1=O)C2 [Compound 2491]

system: not listed separately; assay: Area under the curve determinations of plasma levels in rats (rrAUC), oral 10 mg/kg; type: in vivo; settings: rat, plasma 0.5-6 h, read-out: RR AUC (rapid rat AUC, rrAUC)

Structure (SMILES) | AUC
COc1ccc2c(c1)C(=O)N(C[C@@]1(c3cc4nc(N5CCC[C@H]5CO)ccc4o3)NC(=O)NC1=O)C2 [Compound 1513] | 0.524 µM·h
CCN1CCN(c2nc3cc([C@]4(CN5Cc6ccc(OC)c(F)c6C5=O)NC(=O)NC4=O)oc3cc2F)CC1 [Compound 1709] | 0.623 µM·h
COc1ccc2c(c1F)C(=O)N(C[C@@]1(c3cc4cc([C@@]5(C)NC(=O)NC5=O)c(F)cc4o3)NC(=O)NC1=O)C2 (single isomer, unassigned) [Compound 1326] | 1.04 µM·h
COc1ccc2c(c1F)C(=O)N(C[C@@]1(c3cc4nc(Nc5cncc(F)c5)ccc4o3)NC(=O)NC1=O)C2 [Compound 1733] | 0.904 µM·h

Now from value to compound:

AUC | Structure (SMILES)
4.63 µM·h | COc1ccc2c(c1F)C(=O)N(C[C@@]1(c3cc4nc(N5CCC5=O)ccc4o3)NC(=O)NC1=O)C2 [Compound 1522]
0.273 µM·h | COc1ccc2c(c1F)C(=O)N(C[C@@]1(c3cc4nc(N5CCN(C(C)C)CC5)ccc4o3)NC(=O)NC1=O)C2 [Compound 1706]
0.65 µM·h | CCN1CCN(c2ccc3oc([C@]4(CN5Cc6ccc(OC)c(F)c6C5=O)NC(=O)NC4=O)cc3n2)CC1=O [Compound 1707]
0.113 µM·h | COc1ccc2c(c1)C(=O)N(C[C@@]1(c3cc4nc(C(N)=O)ccc4o3)NC(=O)NC1=O)C2 [Compound 1924]

same assay, conditions: rat, plasma 0.5-6 h post-dosing, read-out: RR AUC (rapid rat AUC, rrAUC)

Structure (SMILES) | AUC
COc1ccc2c(c1)C(=O)N(C[C@@]1(c3cc4nc(N5CCC5=O)ccc4o3)NC(=O)NC1=O)C2 [Compound 2173] | 2.54 µM·h
COc1ccc2c(c1)C(=O)N(C[C@@]1(c3cc4cc(-c5ccncc5)ncc4o3)NC(=O)NC1=O)C2 [Compound 2238] | 4.86 µM·h
COc1ccc2c(c1)C(=O)N(C[C@@]1(c3cc4c(C5=NCCN5)nccc4o3)NC(=O)NC1=O)C2 [Compound 2274] | 0.033 µM·h
COc1ccc2c(c1)C(=O)N(C[C@@]1(c3cc4cc(-n5cncn5)ccc4o3)NC(=O)NC1=O)C2 [Compound 2196] | 7.06 µM·h

The next lines start with the values.

AUC | Structure (SMILES)
0.983 µM·h | COc1ccc2c(c1F)C(=O)N(C[C@@]1(c3cc4c(C)nccc4o3)NC(=O)NC1=O)C2 [Compound 2204]
0.165 µM·h | COc1ccc2c(c1)C(=O)N(C[C@@]1(c3cc4cc(-c5csc(N)n5)ccc4o3)NC(=O)NC1=O)C2 [Compound 2220]
0.104 µM·h | COc1ccc2c(c1)C(=O)N(C[C@@]1(c3cc4nc(-c5cn[nH]c5)ccc4o3)NC(=O)NC1=O)C2 [Compound 2100]
0.285 µM·h | COc1ccc2c(c1)C(=O)N(C[C@@]1(c3cc4cc(-c5cn[nH]c5)c(F)cc4o3)NC(=O)NC1=O)C2 [Compound 1186]
1.33 µM·h | COc1ccc2c(c1)C(=O)N(C[C@@]1(c3cc4nc(Nc5cnccn5)ccc4o3)NC(=O)NC1=O)C2 [Compound 2129]
0.02 µM·h | COc1ccc2c(c1)C(=O)N(C[C@@]1(c3cc4c(-c5ccncc5)nccc4o3)NC(=O)NC1=O)C2 [Compound 2236]

same assay, conditions: rat, plasma, blood collected 0.5-6 h post-dosing, read-out: RR AUC (rapid rat AUC, rrAUC)

Structure (SMILES) | AUC
COc1ccc2c(c1F)C(=O)N(C[C@@]1(c3cc4cc(F)c5c(c4o3)CNC5=O)NC(=O)NC1=O)C2 [Compound 2501] | 0.448 µM·h
COc1ccc2c(c1F)C(=O)N(C[C@@]1(c3cc4c5c(ccc4o3)CNC5=O)NC(=O)NC1=O)C2 [Compound 2505] | 1.12 µM·h
COc1ccc2c(c1)C(=O)N(C[C@@]1(c3cc4cnc(-c5cccc(C#N)c5)cc4o3)NC(=O)NC1=O)C2 [Compound 2489] | 10.6 µM·h

More lines, now with the values ahead:

AUC | Structure (SMILES)
41.4 µM·h | COc1ccc2c(c1)C(=O)N(C[C@@]1(c3cc4c(OC)nccc4o3)NC(=O)NC1=O)C2 [Compound 2307]
9.31 µM·h | COc1ccc2c(c1)C(=O)N(C[C@@]1(c3cc4cc(F)ncc4o3)NC(=O)NC1=O)C2 [Compound 2304]
0.972 µM·h | COc1ccc2c(c1F)C(=O)N(C[C@@]1(c3cc4cc5c(cc4o3)C(=O)NCC5)NC(=O)NC1=O)C2 [Compound 2491]
